Assay results reported in US11400058B2, “Intravenous formulations of coenzyme Q10 (CoQ10) and methods of use thereof” (Berg LLC, priority 2010, dated 2022).
Marks after values point to notes of the source that are not given here.

Assays:
[1] = 4-week repeat-dose study in dogs with 2-week recovery (Study 20000334); details: for Died or Sacrificed Moribund: animals of 5;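 on all read-outs here: endpoints monitored covered cageside and clinical observations, body weight, gross pathology, clinical pathology, histopathology and organ weights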
Protocol: An additional two dogs/sex were included in each group and maintained for a 2-week recovery after treatment. A single test article concentration of 40 mg/mL was provided for use on the study. […] Parameters evaluated included cageside observations, clinical observations, body weight, food consumption, ophthalmoscopy, electrocardiography, clinical pathology, gross pathology, organ weights, and histopathology.

[2] = in vivo; details: beagle, dog, iv
Protocol: In the second dog toxicity study, Charles River Study Number 20000334, CoQ10 IV Formulation was administered as short intravenous infusions at the rate of 5.0 mL/min three times a week for four weeks.
An additional two dogs/sex were included in each group and maintained for a 2-week recovery after treatment. A single test article concentration of 40 mg/mL was provided for use on the study. […] Parameters evaluated included cageside observations, clinical observations, body weight, food consumption, ophthalmoscopy, electrocardiography, clinical pathology, gross pathology, organ weights, and histopathology. Blood samples for determination of the plasma concentrations of CoQ10 IV Formulation were collected pre-dose and at 5, 15, 30 and 60 minutes and at 2, 4, 8 and 24 hours post-dose on Days 1 and 26.

[3] = system: Caspase 3 in HDFa cells; assay: Western blot for Caspase 3 protein; type: cell-based; details: 24 hours
Protocol: For the oxygen consumption rate assay, the oxygen consumption rates in the cell lines was determined using the Seahorse apparatus. The caspase 3 activity was determined using a colorimetric method using a commercially available kit according to manufacturer's instructions. The increase in the expression of Caspase 3 as a measure of apoptosis was determined by western blotting analysis using an antibody specific for detection of Caspase 3 protein.
Caspase 3 levels were determined in various cell lines following treatment with the same two CoQ10 N formulations as used above (the first formulation included 4% CoQ10; 3% DMPC; and 93% water, and the second formulation included 4% CoQ10; 3% DMPC; 1.5% Poloxamer P188; and 91.5% water). Specifically, PC-3, HepG2, MCF-7, HDFa and MIAPACA2 cells were treated with the CoQ10 IV formulation and harvested after 24 hours of treatment. The whole cell pellets of these cells were used for Western Blots. Sample volumes equivalent to 10 μg of protein were prepared with Lamelli Loading Dye (LDS) and water and run on a 4-12% Bis-Tris Novel NuPAGE gel on two 10 lane gels (15 μL loaded per lane) as detailed below. […]

[4] = 31.25 mg/kg F, end of dosing, animals of 3
[5] = 31.25 mg/kg F, end of recovery, animals of 2
[6] = 31.25 mg/kg M, end of dosing, animals of 3
[7] = 31.25 mg/kg M, end of recovery, animals of 2
[8] = 62.5 mg/kg F, end of dosing, animals of 3
[9] = 62.5 mg/kg F, end of recovery, animals of 2
[10] = 62.5 mg/kg M, end of dosing, animals of 3
[11] = 62.5 mg/kg M, end of recovery, animals of 2
[12] = 125 mg/kg F, end of dosing, animals of 3
[13] = 125 mg/kg F, end of recovery, animals of 2
[14] = 125 mg/kg M, end of dosing, animals of 3
[15] = 125 mg/kg M, end of recovery, animals of 2

## COC1=C(OC)C(=O)C(C/C=C(\C)CC/C=C(\C)CC/C=C(\C)CC/C=C(\C)CC/C=C(\C)CC/C=C(\C)CC/C=C(\C)CC/C=C(\C)CC/C=C(\C)CCC=C(C)C)=C(C)C1=O [CoQ10, Coenzyme Q10]
[1]; 31.25 mg/kg F
  Died or Sacrificed Moribund: 0
[1]; 31.25 mg/kg F, end of dosing
  Body Weight, percent difference from controls: +4.7%
  Reticulocytes: 3.67e+10 L⁻¹
[1]; [4]
  Gross Pathology: Pale Liver: 0
  Liver Glycogen Accum.: 2
  Liver Glycogen Accum., Mild: 0
  Liver Glycogen Accum., Minimal: 2
[1]; 31.25 mg/kg F, end of recovery
  Body Weight, percent difference from controls: +10.9%
  Reticulocytes: 63.4 109/L
[1]; [5]
  Gross Pathology: Pale Liver: 0
  Liver Glycogen Accum.: 0
  Liver Glycogen Accum., Mild: 0
  Liver Glycogen Accum., Moderate: 0
[1]; 31.25 mg/kg M
  Died or Sacrificed Moribund: 0
[1]; 31.25 mg/kg M, end of dosing
  Body Weight, percent difference from controls: +3.3%
  Reticulocytes: 4.87e+10 L⁻¹
[1]; [6]
  Gross Pathology: Pale Liver: 0
  Liver Glycogen Accum.: 3
  Liver Glycogen Accum., Mild: 1
  Liver Glycogen Accum., Minimal: 2
[1]; 31.25 mg/kg M, end of recovery
  Body Weight, percent difference from controls: +4.7%
  Reticulocytes: 71.6 109/L
[1]; [7]
  Gross Pathology: Pale Liver: 0
  Liver Glycogen Accum.: 0
  Liver Glycogen Accum., Mild: 0
  Liver Glycogen Accum., Moderate: 0
[1]; 62.5 mg/kg F
  Died or Sacrificed Moribund: 0
[1]; 62.5 mg/kg F, end of dosing
  Body Weight, percent difference from controls: +4.2%
  Reticulocytes: 5.2e+10 L⁻¹
[1]; [8]
  Gross Pathology: Pale Liver: 3
  Liver Glycogen Accum.: 3
  Liver Glycogen Accum., Mild: 1
  Liver Glycogen Accum., Minimal: 2
[1]; 62.5 mg/kg F, end of recovery
  Body Weight, percent difference from controls: +5.1%
  Reticulocytes: 50.8 109/L
[1]; [9]
  Gross Pathology: Pale Liver: 1
  Liver Glycogen Accum.: 1
  Liver Glycogen Accum., Mild: 0
  Liver Glycogen Accum., Moderate: 1
[1]; 62.5 mg/kg M
  Died or Sacrificed Moribund: 0
[1]; 62.5 mg/kg M, end of dosing
  Body Weight, percent difference from controls: 0.0%
  Reticulocytes: 6.8e+10 L⁻¹
[1]; [10]
  Gross Pathology: Pale Liver: 3
  Liver Glycogen Accum.: 3
  Liver Glycogen Accum., Mild: 3
  Liver Glycogen Accum., Minimal: 0
[1]; 62.5 mg/kg M, end of recovery
  Body Weight, percent difference from controls: −1.4%
  Reticulocytes: 85.4 109/L
[1]; [11]
  Gross Pathology: Pale Liver: 1
  Liver Glycogen Accum.: 1
  Liver Glycogen Accum., Mild: 1
  Liver Glycogen Accum., Moderate: 0
[1]; 125 mg/kg F, moribund sacrificed on Day 36 (Week 2 of recovery)
  Died or Sacrificed Moribund: 1^c
[1]; 125 mg/kg F, end of dosing
  Body Weight, percent difference from controls: −1.0%
  Reticulocytes: 160.69 109/L
[1]; [12]
  Gross Pathology: Pale Liver: 3
  Liver Glycogen Accum.: 3
  Liver Glycogen Accum., Mild: 1
  Liver Glycogen Accum., Minimal: 2
[1]; 125 mg/kg F, end of recovery
  Body Weight, percent difference from controls: −1.0%
  Reticulocytes: 53.6 109/L
[1]; [13]
  Gross Pathology: Pale Liver: 2
  Liver Glycogen Accum.: 2
  Liver Glycogen Accum., Mild: 1
  Liver Glycogen Accum., Moderate: 1
[1]; 125 mg/kg M
  Died or Sacrificed Moribund: 0
[1]; 125 mg/kg M, end of dosing
  Body Weight, percent difference from controls: +1.2%
  Reticulocytes: 190.6 109/L
[1]; [14]
  Gross Pathology: Pale Liver: 3
  Liver Glycogen Accum.: 3
  Liver Glycogen Accum., Mild: 3
  Liver Glycogen Accum., Minimal: 0
[1]; 125 mg/kg M, end of recovery
  Body Weight, percent difference from controls: +7.9%
  Reticulocytes: 131.1 109/L
[1]; [15]
  Gross Pathology: Pale Liver: 2
  Liver Glycogen Accum.: 2
  Liver Glycogen Accum., Mild: 1
  Liver Glycogen Accum., Moderate: 1
[2]; female, 31.25 mg/kg
  AUC0-t: 1220 µg·h/mL
[2]; female, 62.5 mg/kg
  AUC0-t: 2920 µg·h/mL
[2]; female, 125 mg/kg
  AUC0-t: 12500 µg·h/mL
[2]; male, 31.25 mg/kg
  AUC0-t: 1130 µg·h/mL
[2]; male, 62.5 mg/kg
  AUC0-t: 3350 µg·h/mL
[2]; male, 125 mg/kg
  AUC0-t: 12800 µg·h/mL
[3]
  intensity of Caspase 3 lower band: decreased
